Legend:
[1] = logP determination by HPLC on a reversed-phase column (C18), EEC Directive 79/831 Annex V.A8; format: physicochemical
Procedure, shortened: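 Retention on a C18 reversed-phase column (Zorbax Eclipse Plus, 1.8 micron) was used, eluting with acetonitrile/water, each containing formic acid. The gradient ran from 10% to 95% acetonitrile over 4.25 min, then held 1.25 min, at 55° C and 2.0 ml/min, with MS detection.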

[2] = tested on: engorged adult female cattle ticks (Boophilus microplus); assay: Boophilus microplus injection test (BOOPMI Inj); format: in vivo; conditions: application rate 20 μg/animal; injection into abdomen; assessed after 7 days
Procedure, shortened: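 DMSO solution of compound (1 μl) injected into the abdomen of 5 engorged adult female ticks, which are then held in a climate-controlled room. After 7 days, efficacy is scored from laying of fertile eggs, with unclear eggs kept until larval hatch (~42 days); 100% means no fertile eggs, 0% all fertile.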

[3] = tested on: adult houseflies (Musca domestica); assay: Musca domestica test (MUSCDO); format: in vivo; conditions: application rate 100 ppm; after 2 days
Procedure, shortened: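 Compound dissolved in DMSO and diluted with water to the test concentration, applied with sugar solution on a sponge; 10 adult houseflies per vessel. Mortality scored after 2 days as % kill (100% all dead, 0% none).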

[4] = tested on: adult cat fleas (Ctenocephalides felis); assay: Ctenocephalides felis in vitro contact test with adult cat fleas (T1); conditions: after 48 h
Procedure, shortened: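 Test compound was dissolved in acetone p.a. (9 mg per 1 ml) and diluted as needed. 250 μl was spread evenly over the inner walls and floor of a 25 ml test tube by rotating on an orbital shaker for 2 h at 30 rpm. Once the solvent evaporated, 5-10 adult Ctenocephalides felis were added. Tubes were capped with a perforated plastic lid and kept horizontal at room temperature and ambient humidity.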

[5] = tested on: caterpillars of the armyworm (Spodoptera frugiperda); assay: Spodoptera frugiperda spray test (SPODFR); format: in vivo; conditions: maize leaf discs, after 7 days
Procedure, shortened: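 Maize leaf discs sprayed with compound in acetone/DMF with alkylaryl polyglycol ether emulsifier (1000 ppm) in water, dried, then infested with armyworm caterpillars. Mortality (%) scored after 7 days; 100% = all caterpillars killed, 0% = none killed.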

[6] = tested on: adult cat fleas (Ctenocephalides felis); assay: Ctenocephalides felis oral test (CTECFE); format: in vivo; conditions: application rate 100 ppm in citrated cattle blood; after 2 days
Procedure, shortened: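 About 20 unfed adult cat fleas fed through parafilm membrane on citrated cattle blood containing compound (DMSO stock diluted in blood to test concentration). Kill % scored after 2 days (100% = all fleas dead).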

[7] = tested on: larvae of the mustard beetle (Phaedon cochleariae); assay: Phaedon cochleariae spray test (PHAECO); format: in vivo; conditions: Chinese cabbage leaf discs, after 7 days
Procedure, shortened: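 Compound dissolved in acetone/dimethylformamide with alkylaryl polyglycol ether emulsifier, made up in water containing 1000 ppm emulsifier, then diluted to test concentrations and sprayed against mustard beetle larvae. Efficacy (% larvae killed) scored after 7 days.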

[8] = tested on: adult castor bean ticks (Ixodes ricinus); assay: Ixodes ricinus in vitro contact test with adult castor bean ticks (T3); conditions: after 48 h
Experimental: T3. Ixodes ricinus-in vitro Contact Tests with Adult Castor Bean Ticks
For the coating of the test tubes, initially 9 mg of active compound are dissolved in 1 ml of acetone p.a. and then diluted with acetone p.a. to the desired concentration. By turning and rocking on an orbital shaker (2 h of rocking rotation at 30 rpm), 250 μl of the solution are distributed homogeneously on the internal walls and the floor of a 25 ml test tube. At 900 ppm active compound solution and 44.7 cm^2 internal surface, an area dose of 5 μg/cm^2 is achieved for homogeneous distribution.
After evaporation of the solvent, the tubes are populated with 5-10 adult castor bean ticks (Ixodes ricinus), sealed with a perforated plastic lid and incubated in a horizontal position in the dark at 22° C. and 90% humidity in a climate-controlled cabinet. After 48 h, the efficacy is determined. To this end, the ticks are knocked to the floor of the tube and incubated on a hotplate at 45-50° C. for at most 5 min. Ticks which remain motionless on the floor or move in an uncoordinated manner such that they are not able to deliberately avoid the heat by climbing upwards are considered to be dead or moribund.
An efficacy of 100% means that all ticks were dead or moribund. 0% efficacy means that none of the ticks had been damaged.

[9] = HPLC on reversed-phase column (C18), acetonitrile/water with formic acid, EEC Directive 79/831 Annex V.A8

Structure (SMILES)	logP [1, 9]	efficacy (laying of fertile eggs) [2]	efficacy (kill in %) [3]	efficacy (dead or moribund fleas) ([4]; application rate 1 μg/cm^2)	efficacy (dead or moribund fleas) ([4]; application rate 5 μg/cm^2)	efficacy in % ([5]; application rate 100 g/ha)	efficacy (kill in %) [6]	efficacy in % ([7]; application rate 100 g/ha)	efficacy (dead or moribund ticks) ([8]; application rate 1 μg/cm^2)	efficacy (dead or moribund ticks) ([8]; application rate 5 μg/cm^2)	logP ([1]; HPLC, reversed-phase C18, acetonitrile (0.1% formic acid)/water (0.09% formic acid) gradient)	efficacy in % ([5]; application rate 500 g/ha)	efficacy in % ([7]; application rate 500 g/ha)	chromatographic logP [1]
CN(C(=O)c1cc(-c2cnn(-c3c(C(F)(F)F)c(C(F)(F)C(F)(F)F)nn3C)c2)ccc1Cl)C1(C#N)CC1 [Ic-96]	4.1	100%	100%	100%	100%	100%	100%	100%						
Cn1nc(C(F)(F)C(F)(F)F)c(C(F)(F)F)c1-n1cc(-c2ccc(Cl)c(C(=O)NCC(F)(F)F)c2)cn1 [Ic-23]	4.17	100%	100%	100%	100%	100%	100%	100%	100%	100%				
Cn1nc(C(F)(F)C(F)(F)F)c(C(F)(F)F)c1-n1cc(-c2ccc(Cl)c(C(=O)NC3(C(N)=S)CC3)c2)cn1 [Ic-11]	3.59	100%	100%	100%	100%	100%	100%	100%	80%	100%				
Cn1nc(C(F)(F)C(F)(F)F)c(C(F)(F)F)c1-n1cnc(-c2ccc(Cl)c(C(=O)NC3CC3)c2)c1 [Ib-3]		100%	100%	100%	100%	100%	100%	100%	80%	80%	3.43			
Cc1ncc(-c2cnn(-c3c(C(F)(F)F)c(C(F)(F)C(F)(F)F)nn3C)c2)cc1C(=O)NC1CC1 [Ic-84]		100%	100%	100%	100%		100%		100%	100%		100%	100%	
Cn1nc(C(F)(F)C(F)(F)F)c(C(F)(F)F)c1-n1cc(-c2ccc(F)c(C(=O)NC3(C#N)CC3)c2)cn1 [Ic-36]	3.69	100%	100%	100%	100%	100%	100%	100%						
Cn1nc(C(F)(F)C(F)(F)F)c(C(F)(F)F)c1-n1cc(-c2ccc(Br)c(C(=O)NC3(C#N)CC3)c2)cn1 [Ic-34]	3.74	100%	100%	100%	100%	100%	100%	100%						
Cn1nc(C(F)(F)C(F)(F)F)c(C(F)(F)F)c1-n1cc(-c2ccc(Cl)c(C(=O)NC3CC3)c2)cn1 [Ic-1, 2-Chloro-N-cyclopropyl-5-[2′-methyl-5′-(pentafluoroethyl)-4′-(trifluoromethyl)-2′H-1,3′-bipyrazol-4-yl]benzamide]		100%	100%	100%	100%		100%		100%	100%		100%	100%	3.79
Cn1nc(C(F)(F)C(F)(F)F)c(C(F)(F)F)c1-n1cc(-c2cc(F)c(Cl)c(C(=O)NC3CC3)c2)cn1 [Ic-24]	3.90	100%	100%	100%	100%		100%					100%	100%	
Cn1nc(C(F)(F)C(F)(F)F)c(C(F)(F)F)c1-n1cc(-c2cc(Cl)c(Cl)c(C(=O)NC3CC3)c2)cn1 [Ic-94]		100%	100%	100%	100%		100%		100%	100%		100%	100%	
Cn1nc(C(F)(F)C(F)(F)F)c(C(F)(F)F)c1-n1cc(-c2ccc(Cl)c(C(=O)NCC(F)F)c2)cn1 [Ic-78]	3.86	100%	100%	100%	100%	100%	100%	100%						
Cn1nc(C(F)(F)C(F)(F)F)c(C(F)(F)F)c1-n1cc(-c2cc(F)c(Cl)c(C(=O)NC3(C#N)CC3)c2)cn1 [Ic-27]	3.87	100%	100%	100%	100%		100%					100%	100%	
Cn1nc(C(F)(F)C(F)(F)F)c(C(F)(F)F)c1-n1cc(-c2ccc([N+](=O)[O-])c(C(=O)NC3CC3)c2)cn1 [Ic-66]	3.53	100%	100%	100%	100%	100%	100%	100%						
